Patent US20100152213A1, “COMPOUND THAT IS A DUAL INHIBITOR OF ENZYMES PDE7 AND/OR PDE4, PHARMACEUTICAL COMPOSITIONS AND USES THEREOF” (priority 2007, published 2010)
Where two headings read alike, the source gives them in different places. Each block holds one compound with its values, some of them ahead of it.

Columns and labels:
[1] = test system: clone of Th2 lymphocytes (D10.G4.1)
Experimental: Cell toxicity tests were carried out on a clone of Th2 lymphocytes (D10.G4.1) through flow cytometry using Propidium Iodide in order to determine cell death.
After this time, the cells were washed and incubated with 5 μg/ml of Propidium Iodide during 1 min. The samples treated in this way were analysed by cytometry using BD FACSCanto™ equipment.

[2] = molecular target: T1, catalytic domain of PDE7A1 (aa. 130-482) (Homo sapiens, UniProt Q13946); assay: PDE inhibitor test, PDE7A1 (3H-cAMP hydrolysis); assay type: biochemical; conditions: substrate at 1/10 of KM; six inhibitor concentrations; duplicate; read-out: Inhibitor data of PDE7A1 (CI50)
T1 construct: The catalytic domain of PDE7A1 (aá. 130-482); made in house; host or cells: E. coli BL21
T1 sequence (Q13946 130-482): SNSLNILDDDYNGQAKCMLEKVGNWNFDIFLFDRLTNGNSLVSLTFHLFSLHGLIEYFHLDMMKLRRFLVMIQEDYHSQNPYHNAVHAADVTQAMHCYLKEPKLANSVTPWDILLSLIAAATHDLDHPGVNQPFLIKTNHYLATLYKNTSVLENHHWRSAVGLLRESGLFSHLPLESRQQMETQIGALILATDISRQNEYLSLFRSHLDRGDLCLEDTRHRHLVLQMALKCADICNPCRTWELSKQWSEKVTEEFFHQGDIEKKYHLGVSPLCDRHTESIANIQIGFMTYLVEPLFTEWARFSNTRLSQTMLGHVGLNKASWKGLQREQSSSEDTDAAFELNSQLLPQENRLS

T-lymphocytes = assay: Study of intracellular cAMP levels (cAMP Biotrak Enzymeimmunoassay); assay type: cell-based; conditions: inhibitor alone (FIG. 5)
Experimental: PDE inhibition has the direct effect of increasing cAMP, since their degradation is prevented. In order to verify this effect on the cell system of T-lymphocytes two compounds of formula (I) of the invention were chosen, specifically: TC 3.6 and TC 3.14 and cAMP concentration was measured using the cAMP Biotrak Enzymeimmunoassay System of Amersham Biosciences kit.

[3] = molecular target: T2, complete enzyme of PDE4D2 (aa. 1-507) (Homo sapiens, UniProt Q08499); assay: PDE inhibitor test, PDE4D2 (3H-cAMP hydrolysis); assay type: biochemical; conditions: substrate at 1/10 of KM; six inhibitor concentrations; duplicate; read-out: Inhibitor data of PDE4D2 (CI50)
T2 construct: the complete enzyme of PDE4D2 (aa. 1-507); made in house; host or cells: E. coli BL21
T2 sequence (Q08499 303-809): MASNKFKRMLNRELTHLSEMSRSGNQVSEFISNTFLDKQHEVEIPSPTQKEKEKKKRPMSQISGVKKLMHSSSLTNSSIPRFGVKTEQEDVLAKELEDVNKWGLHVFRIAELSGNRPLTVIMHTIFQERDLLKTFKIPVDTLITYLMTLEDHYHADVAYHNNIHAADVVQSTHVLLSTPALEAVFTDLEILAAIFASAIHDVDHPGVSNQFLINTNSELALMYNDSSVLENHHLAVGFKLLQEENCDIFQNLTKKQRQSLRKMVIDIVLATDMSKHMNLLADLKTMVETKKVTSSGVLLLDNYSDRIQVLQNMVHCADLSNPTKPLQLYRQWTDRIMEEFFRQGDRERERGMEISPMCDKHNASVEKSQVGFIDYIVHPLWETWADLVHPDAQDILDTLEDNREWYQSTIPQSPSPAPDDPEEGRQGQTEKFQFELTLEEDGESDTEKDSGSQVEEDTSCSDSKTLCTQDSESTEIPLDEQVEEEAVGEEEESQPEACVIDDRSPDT
Experimental: The catalytic domain of PDE7A1 (aá. 130-482) and the complete enzyme of PDE4D2 (aa. 1-507) were subcloned in pET vectors, overexpressed in E. coli strain BL21, and purified to homogeneity as described in the bibliography (Wang, H., Liu, Y., Chen, Y., Robinson, H., and Ke, H. Multiple elements jointly determine inhibitor selectivity of cyclic nucleotide phosphodiesterases 4 and 7. J. Biol. Chem. 2005, 280, 30949-30955). The enzymatic activities of PDE7A1 and PDE4D2 were tested through incubation of the enzymes with 100 μL of a reaction mixture that contained 50 mM Tris.HCl (pH 8.5), 50 mM MgCl2, 5 mM DTT, and ^3H-cAMP (20000 cpm per test, Sigma-Aldrich) at room temperature during 10 minutes. The reactions were concluded by adding 200 μL 0.2 M ZnSO4 when 20-50% of the cAMP was hydrolysed. The product of the reaction, ^3H-AMP, was precipitated by adding 200 μL 0.25 M Ba(OH)2 (Sigma-Aldrich), while the unreacted ^3H-AMPc remained in the supernatant. Radioactivity of the supernatant was measured with a mixture of scintillation liquid (ScintiSafe PlusTM 50%, Fisher Scientific) using the counter LKB RackBeta 1214.
For inhibitor measurements, six concentrations of inhibitors were used in the presence of a substrate concentration equivalent to 1/10 of the KM and the enzyme concentration that hydrolyses 50% of the substrate. […] All experiments were carried out in duplicate.

[4] = D10.G4.1 cells, 1×10^6 cells/ml, 48 h

Compound: 3-(2,6-difluorophenyl)-2-methylthio-4-thioxo-3,4-dihydroquinazoline [TC2.43]
maximum concentration at which more than 80% cellular viability was maintained in comparison to the control of cells without inhibitor [1, 4]: 5 µM

Compound: Cc1ccc([N+](=O)[O-])cc1S(=O)(=O)N(C)C [BRL50481, 3-(N,N-dimethylsulfonamide)-4-methyl-nitrobenzene, reference compound]
maximum concentration at which more than 80% cellular viability was maintained in comparison to the control of cells without inhibitor [1, 4]: >1000 µM

Compound: COc1ccc(C2CNC(=O)C2)cc1OC1CCCC1 (stereo not drawn) [Rolipram, reference compound]
maximum concentration at which more than 80% cellular viability was maintained in comparison to the control of cells without inhibitor [1, 4]: >1000 µM

Compound: O=c1c2cc(Br)ccc2[nH]c(=S)n1-c1ccccc1 [TC2.30A, 6-Bromo-3-phenyl-4-oxo-2-thioxo-1,2,3,4-tetrahydroquinazoline]
IC50 [2]: > 10000 nM

IC50 [2]: > 1000 nM
Compound: Fc1ccc(-n2c(=S)[nH]c3ccccc3c2=S)c(F)c1F [TC2.45, 3-(2,3,4-Trifluorophenyl)-2,4-dithioxo-1,2,3,4-tetrahydroquinazoline]

Compound: Fc1cccc(F)c1-n1c(=S)[nH]c2ccccc2c1=S [TC2.49, 3-(2,6-Difluorophenyl)-2,4-dithioxo-1,2,3,4-tetrahydroquinazoline]
maximum concentration at which more than 80% cellular viability was maintained in comparison to the control of cells without inhibitor ([1]; mouse, 48 h): 50 µM
IC50 [2]: ~1000 nM

IC50 [2]: > 1000 nM
Compound: CSc1nc2ccccc2c(=S)n1-c1ccc(F)c(F)c1F [TC2.51, 3-(2,3,4-trifluorophenyl)-2-methylthio-4-thioxo-3,4-dihydroquinazoline]

Compound: CSc1nc2ccccc2c(=S)n1-c1c(F)cccc1F [TC3.1, 3-(2,6-difluorophenyl)-2-methylthio-4-thioxo-3,4-dihydroquinazoline]
maximum concentration at which more than 80% cellular viability was maintained in comparison to the control of cells without inhibitor ([1]; mouse, 48 h): 10 µM
IC50 [2]: 100 to 1000 nM

Compound: S=c1[nH]c2ccccc2c(=S)n1-c1ccccc1 [TC3.6, 3-Phenyl-2,4-dithioxo-1,2,3,4-tetrahydroquinazoline]
cell toxicity (in words) ([1]; D10.G4.1 cells, 48 h, among the compounds of new synthesis): most moderate toxicity
maximum concentration at which more than 80% cellular viability was maintained in comparison to the control of cells without inhibitor ([1]; mouse, 48 h): 1000 µM
amount of intracellular cAMP in relation to the control (T-lymphocytes): increased in a statistically significant manner
IC50 [2]: 1040 ± 80 nM
IC50 [3]: 5.7 ± 0.03 µM

Compound: CSc1nc2ccccc2c(=S)n1-c1ccccc1 [TC3.9, 3-Phenyl-2-methylthio-4-thioxo-3,4-dihydroquinazoline]
maximum concentration at which more than 80% cellular viability was maintained in comparison to the control of cells without inhibitor ([1]; mouse, 48 h): 100 µM
IC50 [2]: 840 ± 10 nM
IC50 [3]: 8 ± 1.2 µM

Compound: CSc1nc2ccccc2c(=S)n1-c1ccccc1Br [TC3.13, 3-(2-bromophenyl)-2-methylthio-4-thioxo-3,4-dihydroquinazoline]
maximum concentration at which more than 80% cellular viability was maintained in comparison to the control of cells without inhibitor ([1]; mouse, 48 h): 10 µM
IC50 [2]: 100 to 1000 nM

Compound: Cc1cccc2c(=O)n(-c3ccccc3Br)c(=S)[nH]c12 [TC3.14, 3-(2-Bromophenyl)-8-methyl-4-oxo-2-thioxo-1,2,3,4-tetrahydroquinazoline]
cell toxicity (in words) [1]: most moderate toxicity
maximum concentration at which more than 80% cellular viability was maintained in comparison to the control of cells without inhibitor ([1]; mouse, 48 h): 600 µM
amount of intracellular cAMP in relation to the control (T-lymphocytes): increased in a statistically significant manner
IC50 [2]: 1700 ± 100 nM
IC50 [3]: 34 ± 5 µM

Compound: CSc1nc2c(C)cccc2c(=O)n1-c1ccccc1 [TC3.15b, 3-Phenyl-8-methyl-2-methylthio-4-oxo-3,4-dihydroquinazoline]
cell toxicity (in words) [1]: most moderate toxicity
maximum concentration at which more than 80% cellular viability was maintained in comparison to the control of cells without inhibitor ([1]; mouse, 48 h): 600 µM
IC50 [2]: ~1000 nM

Compound: Cc1cccc2c(=O)n(-c3c(F)cccc3F)c(=S)[nH]c12 [TC3.16, 3-(2,6-Difluorophenyl)-8-methyl-4-oxo-2-thioxo-1,2,3,4-tetrahydroquinazoline]
IC50 [2]: > 1000 nM

Compound: Cc1cccc2c(=O)n(-c3ccc(F)c(F)c3F)c(=S)[nH]c12 [TC3.17, 3-(2,3,4-Trifluorophenyl)-8-methyl-4-oxo-2-thioxo-1,2,3,4-tetrahydroquinazoline]
IC50 [2]: > 10000 nM

Compound: CSc1nc2c(C)cccc2c(=O)n1-c1ccccc1Br [TC3.22, 3-(2-Bromophenyl)-8-methyl-2-methylthio-4-oxo-3,4-dihydroquinazoline]
maximum concentration at which more than 80% cellular viability was maintained in comparison to the control of cells without inhibitor ([1]; mouse, 48 h): 5 µM
IC50 [2]: 270 ± 20 nM
IC50 [3]: 1.1 ± 0.2 µM

Compound: CSc1nc2c(C)cccc2c(=O)n1-c1c(F)cccc1F [TC3.23, 3-(2,6-Difluorophenyl)-8-methyl-2-methylthio-4-oxo-3,4-dihydroquinazoline]
maximum concentration at which more than 80% cellular viability was maintained in comparison to the control of cells without inhibitor ([1]; mouse, 48 h): 10 µM
IC50 [2]: 130 ± 20 nM
IC50 [3]: 1.4 ± 0.2 µM

Compound: CSc1nc2c(C)cccc2c(=O)n1-c1ccc(F)c(F)c1F [TC3.24, 3-(2,3,4-Trifluorophenyl)-8-methyl-2-methylthio-4-oxo-3,4-dihydroquinazoline]
IC50 [2]: > 1000 nM

Compound: O=c1c2cc(Br)ccc2[nH]c(=S)n1-c1ccccc1Br [TC3.28, 6-Bromo-3-(2-bromophenyl)-4-oxo-2-thioxo-1,2,3,4-tetrahydroquinazoline]
IC50 [2]: ~10000 nM

Compound: O=c1c2cc(Br)ccc2[nH]c(=S)n1-c1c(F)cccc1F [TC3.29, 6-Bromo-3-(2,6-difluorophenyl)-4-oxo-2-thioxo-1,2,3,4-tetrahydroquinazoline]
IC50 [2]: > 10000 nM

Compound: O=c1c2cc(Br)ccc2[nH]c(=S)n1-c1ccc(F)c(F)c1F [TC3.30, 6-Bromo-3-(2,3,4-trifluorophenyl)-4-oxo-2-thioxo-1,2,3,4-tetrahydroquinazoline]
IC50 [2]: > 10000 nM

Compound: CSc1nc2ccc(Br)cc2c(=O)n1-c1ccc(F)c(F)c1F [TC3.32, 6-Bromo-3-(2,3,4-trifluorophenyl)-2-methylthio-4-oxo-3,4-dihydroquinazoline]
maximum concentration at which more than 80% cellular viability was maintained in comparison to the control of cells without inhibitor ([1]; mouse, 48 h): 100 µM
IC50 [2]: 2100 ± 100 nM

Compound: CSc1nc2ccc(Br)cc2c(=O)n1-c1ccccc1Br [TC3.35, 6-Bromo-3-(2-bromophenyl)-2-methylthio-4-oxo-3,4-dihydroquinazoline]
maximum concentration at which more than 80% cellular viability was maintained in comparison to the control of cells without inhibitor ([1]; mouse, 48 h): 10 µM
IC50 [2]: 1860 ± 180 nM

Compound: CSc1nc2ccc(Br)cc2c(=O)n1-c1c(F)cccc1F [TC3.36, 6-Bromo-3-(2,6-difluorophenyl)-2-methylthio-4-oxo-3,4-dihydroquinazoline]
maximum concentration at which more than 80% cellular viability was maintained in comparison to the control of cells without inhibitor ([1]; mouse, 48 h): 10 µM
IC50 [2]: 240 ± 30 nM
IC50 [3]: 4.5 ± 0.1 µM

Compound: CSc1nc2ccc(Br)cc2c(=O)n1-c1ccccc1 [TC3.47A, 6-Bromo-3-phenyl-2-methylthio-4-oxo-3,4-dihydroquinazoline]
IC50 [2]: > 1000 nM
